Results as given in patent US6902726B1, “Reduction of odor gases from waste using plant-derived oils” (The United States of America as represented by the …, priority 2001, dated 2005).
Values after ≈ are worked out from the molar mass of the structure shown. Read-outs that look alike come from different tables or passages of the source.

How the values were obtained:
fecal coliforms = fecal coliforms in swine waste, open jars; assay type: cell-based
Method: (§1) Swine waste was collected and processed into a slurry as in Example 3. As in Example 2, the slurry was added to wide-mouth (10 cm) jars (17 cm tall, 13.5 cm in diameter, 1.6-liter volume) with the test antimicrobial additives, and plastic lids were placed to cover approximately 90% of the jar opening to prevent moisture loss over the experimental period. The sampling procedure was similar to that described above in Example 3, except no stirring or mixing occurred before the contents were sampled, and treatments were in triplicate.
(§2) Fecal coliforms were enumerated with 3 M Petrifilm Escherichia coli coliform count plates (3 M Microbiology Products, St. Paul, Minn.). Both of the carvacrol treatments reduced (P<0.05) the number of viable anaerobic bacteria in the waste within 2 days when compared to the controls (Table 2). This effect was sustained for 28 days. The initial decrease in the concentrations of anaerobic bacteria from day 0 to 2 in the control is presumably because VFAs increase in this batch system and become lethal to a select population of organisms.

[1] = recovery of added oil from liquid and solid fractions of swine waste, sealed flasks; assay type: physicochemical
Method: Swine waste was processed similarly to the method described in Example 1. Fecal waste was randomly collected within 15 min of being excreted from animals fed a finishing diet of 85% corn and 11% soybean meal. Swine urine was collected from catheterized animals. Feces, urine, and distilled water in the ratio 50:35:15 were blended (Waring Inc., New Hartford, Conn.) for 1 min. Four replicate samples were obtained from this slurry and analyzed for various parameters and were considered as time 0. […] Gas volume and composition were analyzed in these flasks (anoxic slurry).
(§3) A 15-ml waste sample was collected from each flask. The sample was mixed with 15 ml of 0.5 M H2SO4, centrifuged at 2000×g for 20 min at 4° C., and stored at −20° C. until analyzed [Varel, V. H. et al. (1999), J Anim Sci 77:1162-1168]. L-Lactate concentrations were determined with a membrane-immobilized system involving lactate oxidase (Model 27, Yellow Springs Instrument Co., Yellow Springs, Ohio, USA). Short-chain volatile fatty acids (VFAs; acetate, propionate, butyrate, valerate, isobutyrate, isovalerate) and aromatic compounds (cresol, indole, skatole, 4-ethylphenol, phenol) were determined in an aliquot from the original acidified sample. […] Data were analyzed as a split-plot in time with the GLM procedure of (SAS).

stored swine waste [2] = test: VFA production from swine waste in open jars; assay type: cell-based
Method: as §3, with “sample. After thawing, the sample was centrifuged at 5° C., 10,000×g for 5 min. A 0.5 ml aliquot of the supernatant was combined with an internal standard, ethyl butyrate (0.25 mM final concentration), the sample was acidified with 0.4 ml of 3 M HC1, 0.8 ml ethyl ether was added, the sample was shaken vigorously for 1 min, and centrifuged at 5° C., 16,000×g for 1 min, and the ether phase was analyzed. […] Aromatic, VFAs, thymol and carvacrol were analyzed with a Hewlett Packard 6890 gas chromatograph equipped with a flame ionization detector and a Hewlett Packard 5973 mass selective detector.” for “sample.”, “(SAS). […]” for “(SAS).”

E. coli O157:H7 = conditions: cited from earlier work; for concentration that will kill E. coli O157:H7: Kim et al.; for minimum inhibitory concentration: pure culture system, Helander et al.
stored cattle waste [3] = test: fermentation of stored cattle waste in open wide-mouthed jars (VFA, butyrate); assay type: cell-based; conditions: for production of short-chain volatile fatty acids: 13.3 mM individually, 56 days, versus combination of the two oils (6.7 mM each); for concentration that suppressed essentially all fermentation activity: cattle waste slurry of feces, urine and water (50:35:15)
Method: Waste was collected and processed as in Example 1. The waste slurry was divided into 1-liter aliquots and poured into wide-mouth (10 cm) jars (17 cm tall, 13.5 cm diameter, 1.6-liters). The plant oils (carvacrol, thymol and α-pinene) were added to the slurry without stirring or mixing. Plastic lids provided with the jars were used to cover approximately 90% of the jar opening to prevent moisture loss over the 56-day experimental period. A wide mouth pipette was inserted into the slurry from top to bottom at which time slurry contents were simultaneously withdrawn. Total VFA production and butyrate production were measured as described in Example 1.

stored swine waste [4] = test: fermentation of stored swine waste in anoxic flasks (gas, VFA, L-lactate, pH); assay type: cell-based; conditions: for methane detected: 13.3 mM, after 20 days; for gas production / production of propionate / production of valerate, isovalerate, isobutyrate and cresol: carvacrol or thymol at 13.3 or 16.75 mM, or combination to equal 16.75 mM; for lactate accumulation: oil added to swine waste; for concentration required to suppress most fermentation activity: swine waste slurry, same ratio (50:35:15)
Method: Swine waste was processed similarly to the method described in Example 1. Fecal waste was randomly collected within 15 min of being excreted from animals fed a finishing diet of 85% corn and 11% soybean meal. Swine urine was collected from catheterized animals. Feces, urine, and distilled water in the ratio 50:35:15 were blended (Waring Inc., New Hartford, Conn.) for 1 min. Four replicate samples were obtained from this slurry and analyzed for various parameters and were considered as time 0. The waste slurry was divided into 500 ml aliquots and antimicrobial plant oils were added directly at the desired concentration, with one exception, in which carvacrol was dissolved 1:1 v:v in 95% ethanol, or 2 ml carvacrol/ethanol addition in these 500 ml slurries. The slurry was blended 1 min to provide a homogenous mixing of the antimicrobial oils and poured into 1-liter Erlenmeyer flasks, which were gassed with nitrogen (also after each sampling), sealed with a rubber stopper and left stationary at ambient temperature (25° C.). Treatments were in duplicate, and the contents of the flasks were gently swirled before being sampled at the days indicated in FIGS. 3-5. Gas volume and composition were analyzed in these flasks (anoxic slurry).
Head space gas was measured by displacement of a water-lubricated glass piston in a 50 ml syringe [Miller, T. L. et al. (1974), Appl Environ 27:985-987]. A 20-gauge needle with a Leurlok was inserted through the stopper, and a three-way valve was attached to the needle to allow gas volume to be periodically determined. Methane and hydrogen were analyzed as previously described [Varel, V. H. et al. (2000), Curr Microbiol 40:392-397].
A 15-ml waste sample was collected from each flask. The sample was mixed with 15 ml of 0.5 M H2SO4, centrifuged at 2000×g for 20 min at 4° C., and stored at −20° C. until analyzed [Varel, V. H. et al. (1999), J Anim Sci 77:1162-1168]. L-Lactate concentrations were determined with a membrane-immobilized system involving lactate oxidase (Model 27, Yellow Springs Instrument Co., Yellow Springs, Ohio, USA). Short-chain volatile fatty acids (VFAs; acetate, propionate, butyrate, valerate, isobutyrate, isovalerate) and aromatic compounds (cresol, indole, skatole, 4-ethylphenol, phenol) were determined in an aliquot from the original acidified sample. After thawing, the sample was centrifuged at 5° C., 10,000×g for 5 min. A 0.5 ml aliquot of the supernatant was combined with an internal standard, ethyl butyrate (0.25 mM final concentration), the sample was acidified with 0.4 ml of 3 M HC1, 0.8 ml ethyl ether was added, the sample was shaken vigorously for 1 min, and centrifuged at 5° C., 16,000×g for 1 min, and the ether phase was analyzed. To determine carvacrol and thymol concentrations, an aliquot of the original acidified sample which was not centrifuged, was treated as indicated above and extracted with ether twice. […] Aromatic, VFAs, thymol and carvacrol were analyzed with a Hewlett Packard 6890 gas chromatograph equipped with a flame ionization detector and a Hewlett Packard 5973 mass selective detector. Compounds were separated on a 30 m×0.32 mm diameter (0.5 μm film thickness) Innowax PEG column using the following program parameters: flow rate was 1.9 ml min^−1, initial temperature was 140° C., initial time was 3 min with a temperature ramp of 7.5° C. min^−1, with a final temperature of 230° C. for 4 min. Injector and detector temperatures were 250° C. Data were analyzed as a split-plot in time with the GLM procedure of (SAS).

Salmonella typhimurium = conditions: pure culture system; Helander et al.; cited from earlier work
[5] = system: total culturable anaerobic bacteria; test: total culturable anaerobic bacteria in swine waste, open jars; assay type: cell-based; conditions: 13.3 mM and 20 mM; within 2 days versus controls (P<0.05); sustained for 28 days
Method: as §1, §2

stored cattle waste [6] = test: VFA and L-lactate production from cattle waste in anoxic flasks, eugenol versus thymol; assay type: cell-based; conditions: for L-lactate production: cattle waste, eugenol at all concentrations evaluated
Method: Waste was collected and processed as in Example 1. The waste slurry was divided into 500-ml aliquots and eugenol or thymol were added directly at the desired concentration. The slurry was blended 1 min to provide a homogeneous mixing of the antimicrobial oils and poured into a 1-liter Erlenmeyer flask, which was sealed with a rubber stopper and left stationary at ambient temperature (25° C.). Treatments were in triplicate, and the contents of the flask were gently swirled before being sampled at the times indicated. Short-chain volatile fatty acids and L-lactate in the flasks were determined as described in Example 1. […] This is a desirable effect in some cases because it rapidly lowers the pH which contributes to inhibiting the overall fermentation of the wastes, and more ammonia nitrogen will be retained in the wastes.

Structure (SMILES) | minimum inhibitory concentration (E. coli O157:H7) [mM] | production of short-chain volatile fatty acids (stored cattle waste [3]) | concentration that suppressed essentially all fermentation activity (stored cattle waste [3]) [mM] | methane detected (stored swine waste [4]) | gas production (stored swine waste [4]) | production of propionate (stored swine waste [4]) | production of valerate, isovalerate, isobutyrate and cresol (stored swine waste [4]) | lactate accumulation (stored swine waste [4]) | concentration required to suppress most fermentation activity (stored swine waste [4]) [mM] | minimum inhibitory concentration (Salmonella typhimurium) [mM] | L-lactate production (stored cattle waste [6]) | other results
Cc1ccc(C(C)C)cc1O [carvacrol] | 3 (≈ 451 µg/mL) | equally or slightly better | 13.3 | Trace amounts | essentially stopped most gas production | inhibited | prevented any production | accumulated | 16.75 | 1 (≈ 150 µg/mL) | – | fecal coliforms (fecal coliforms; 13.3 mM, at 14 days): none were detected; fecal coliforms (fecal coliforms; 13.3 mM, within 2 days (P<0.01)): reduced; fecal coliforms (fecal coliforms; 20 mM, after 2 days): No fecal coliforms were detected; recoveries compared with thymol ([1]; sealed flasks): similar; effect of dissolving in ethanol on ability to inhibit VFA production (stored swine waste [2]; dissolved in ethanol before addition (P>0.05)): no effect; production of VFAs (stored swine waste [2]; three concentrations (P<0.01), open jars): inhibited the production of VFAs; concentration that will kill E. coli O157:H7 (E. coli O157:H7): 500 µg/mL; concentration that will kill E. coli O157:H7 (E. coli O157:H7; value in brackets): 3.3 mM; number of viable anaerobic bacteria [5]: reduced
C=CCc1ccc(O)c(OC)c1 [eugenol] | – | – | – | – | – | – | – | – | – | – | stimulates L-lactate production | control of total VFA production compared to 2000 ppm (13.3 mM) thymol (stored cattle waste [6]; 2000 or 2500 ppm (13.3 or 16 mM), 42-day period): equally or more effective; inhibition of VFA production, dependence (stored cattle waste [6]; various concentrations): concentration dependent
Cc1ccc(C(C)C)c(O)c1 [thymol] | 3 (≈ 451 µg/mL) | equally or slightly better | 13.3 | Trace amounts | essentially stopped most gas production | inhibited | prevented any production | accumulated | 16.75 | 1 (≈ 150 µg/mL) | inhibits production of L-lactate | thymol recovered from the liquid or supernatant fraction ([1]; % of added, swine waste): less than 25%
